Data reported in US20230391760A1, “HETEROCYCLIC GLP-1 AGONISTS” (Gasherbrum Bio, Inc., priority 2020, published 2023).

Biological target: GLP-1 Receptor (Homo sapiens, UniProt P43220)
Test: GLP-1R agonist cAMP stimulation assay (HEK293/GLP1R/CRE-LUC cells, cAMP dynamic 2 Kit)
Type: cell-based
Conditions: HEK293/CRE-Luc cell line stably expressing the GLP-1 Receptor, 30 min at 37° C.
Procedure, shortened: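 cAMP measured by HTRF competition (d2-labelled cAMP with cryptate antibody, 1 h, room temperature, protected from light). Before that, GLP1R/CRE-Luc HEK293 cells (1000/well) were exposed for 30 min at 37 °C to half-log compound dilutions in DPBS containing IBMX 0.5 mM and BSA 0.1%.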

Chain of GLP-1 Receptor (P43220 24-463, species assumed): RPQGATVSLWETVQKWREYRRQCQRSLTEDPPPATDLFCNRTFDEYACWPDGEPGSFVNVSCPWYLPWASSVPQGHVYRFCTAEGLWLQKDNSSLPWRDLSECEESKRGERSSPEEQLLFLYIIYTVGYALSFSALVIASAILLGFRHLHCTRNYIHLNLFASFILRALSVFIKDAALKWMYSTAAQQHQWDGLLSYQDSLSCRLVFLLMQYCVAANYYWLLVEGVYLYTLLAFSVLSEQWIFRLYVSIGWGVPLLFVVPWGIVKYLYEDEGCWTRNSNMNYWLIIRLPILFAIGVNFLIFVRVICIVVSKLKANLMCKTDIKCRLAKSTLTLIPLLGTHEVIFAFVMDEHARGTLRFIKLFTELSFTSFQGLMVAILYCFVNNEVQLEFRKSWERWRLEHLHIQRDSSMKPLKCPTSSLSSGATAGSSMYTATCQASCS

Row | Compound | EC50 [nM]
1 | CC1(c2ccc(Cl)cn2)Oc2cccc(C3=CCN(Cc4nc5cc(-c6nnc(C7CC7)[nH]6)cnc5n4C[C@@H]4CCO4)CC3)c2O1 (stereo partly drawn) [Compound 416a, 5-chloro-2-[4-(1-{[6-(5-cyclopropyl-4H-1,2,4-triazol-3-yl)-3-{[(2S)-oxetan-2-yl]methyl}-3H-imidazo[4,5-b]pyridin-2-yl]methyl}-1,2,3,6-tetrahydropyridin-4-yl)-2-methyl-2H-1,3-benzodioxol-2-yl]pyridine] | 14
2 | CC(=O)Nc1ccc2c(c1)nc(CN1CCC(c3cccc4c3OC[C@@H](c3ccc(Cl)cc3F)O4)CC1)n2C[C@@H]1CCO1 [Compound 114a, N-(2-((4-((R)-2-(4-chloro-2-fluorophenyl)-2,3-dihydrobenzo[b][1,4]dioxin-5-yl)piperidin-1-yl)methyl)-1-(((S)-oxetan-2-yl)methyl)-1H-benzo[d]imidazol-5-yl)acetamide] | 58.9
3 | CC1(c2ccc(Cl)cn2)Oc2cccc(C3CCN(Cc4nc5cc(-c6nnc(C(F)(F)F)[nH]6)ccc5n4CC4(C#N)CC4)CC3)c2O1 (centres unmarked) [Compound 415, 1-{[2-({4-[2-(5-chloropyridin-2-yl)-2-methyl-2H-1,3-benzodioxol-4-yl]piperidin-1-yl}methyl)-5-[5-(trifluoromethyl)-4H-1,2,4-triazol-3-yl]-1H-1,3-benzodiazol-1-yl]methyl}cyclopropane-1-carbonitrile] | 0.14
4 | Fc1cc(Cl)ccc1COc1cccc(N2CCN(Cc3nc4cc(-c5nnc(C(F)(F)F)[nH]5)cnc4n3C[C@@H]3CCO3)CC2)n1 [Compound 494a, 1-{6-[(4-chloro-2-fluorophenyl)methoxy]pyridin-2-yl}-4-[(3-{[(2S)-oxetan-2-yl]methyl}-6-[5-(trifluoromethyl)-4H-1,2,4-triazol-3-yl]-3H-imidazo[4,5-b]pyridin-2-yl)methyl]piperazine] | 0.013
5 | C[C@]1(c2ccc(Cl)cn2)Oc2cccc(C3CCN(Cc4nc5cc(-c6noc(=O)[nH]6)ncc5n4C[C@@H]4CCO4)CC3)c2O1 [Compound 430a, 3-[2-({4-[(2S)-2-(5-chloropyridin-2-yl)-2-methyl-2H-1,3-benzodioxol-4-yl]piperidin-1-yl}methyl)-3-{[(2S)-oxetan-2-yl]methyl}-3H-imidazo[4,5-c]pyridin-6-yl]-4,5-dihydro-1,2,4-oxadiazol-5-one] | 0.04
6 | O=C(Nc1ccc2c(c1)nc(CN1CCC(c3cccc(OCc4ccc(Cl)cc4F)n3)CC1)n2C[C@@H]1CCO1)C1CCC(F)(F)C1 (stereo partly drawn) [Compound 186a, N-{2-[(4-{6-[(4-chloro-2-fluorophenyl)methoxy]pyridin-2-yl}piperidin-1-yl)methyl]-1-{[(2S)-oxetan-2-yl]methyl}-1H-1,3-benzodiazol-5-yl}-3,3-difluorocyclopentane-1-carboxamide] | 3
7 | C[C@]1(c2ccc(Cl)cn2)Oc2cccc(C3CCN(Cc4nc5cc(-c6noc(=O)[nH]6)nnc5n4C[C@@H]4CCO4)CC3)c2O1 [Compound 463a, 3-[6-({4-[(2S)-2-(5-chloropyridin-2-yl)-2-methyl-2H-1,3-benzodioxol-4-yl]piperidin-1-yl}methyl)-7-{[(2S)-oxetan-2-yl]methyl}-7H-imidazo[4,5-c]pyridazin-3-yl]-4,5-dihydro-1,2,4-oxadiazol-5-one] | 0.35
8 | N#Cc1ccc(COc2cccc(C3CCN(Cc4nc5cc(-c6nnc(C(F)(F)F)[nH]6)ncc5n4C[C@@H]4CCO4)CC3)n2)c(F)c1 [Compound 313a, 3-fluoro-4-{[(6-{1-[(3-{[(2S)-oxetan-2-yl]methyl}-6-[5-(trifluoromethyl)-4H-1,2,4-triazol-3-yl]-3H-imidazo[4,5-c]pyridin-2-yl)methyl]piperidin-4-yl}pyridin-2-yl)oxy]methyl}benzonitrile] | 0.012
